According to patent US9822373B2, “Mutant cells for protein secretion and lignocellulose degradation” (The Regents of the University of California, priority 2011, dated 2017):
Values belong to the compound of their own block, whether it stands above or below them.

Key:
[1] = tested on: cellulase genes (cbh-1, gh5-1, gh6-2); experiment: Quantitative RT-PCR, cellulase gene expression stated for the genes together; format: cell-based, Neurospora crassa; details: for induction of cellulase gene expression: 4 hour induction with 1 mM; for induction of lignocellulolytic genes: wild-type N. crassa (WT) grown on the substance as sole carbon source
Description: Conidia from strains were inoculated at an OD595 equal to 0.05 in 50 ml Vogel's salts (45) with 2% w/v sucrose in a 250 ml Erlenmeyer flask and grown under constant light at 200 rpm for 16 hours. Biomass was then spun at 4200 rpm for 10 minutes and washed in Vogel's salts twice to remove any excess sucrose. […] Cultures were induced for 4 hrs under constant light at 200 rpm. The culture biomass was then harvested by filtration over a Whatman glass microfiber filter (GF/F) on a Buchner funnel and washed with 50 ml Vogel's salts. The biomass was flash frozen in liquid nitrogen and stored at −80° C. Three independent biological duplicates (flasks) were evaluated for each time point.
Total RNA from frozen samples was isolated using Zirconia/Silica beads (0.5 mm diameter; Biospec) and a Mini-Beadbeater-96 (Biospec) with 1 mL TRIzol reagent (Invitrogen) according to the manufacturer's instructions. The total RNA was further purified by digestion with TURBO DNA-free (Ambion) and an RNeasy kit (Qiagen). RNA concentration and integrity was checked by Nanodrop and agarose gel electrophoresis.
Quantitative RT-PCR was performed using the EXPRESS One-Step SYBR GreenER Kit (Invitrogen) and the StepOnePlus Real-Time PCR System (Applied Biosystems). Reactions were performed in triplicate with a total reaction volume of 10 μl including 300 nM each forward and reverse primers and 75 ng template RNA. Data Analysis was performed by the StepOne Software (Applied Biosystems) using the Relative Quantitation/Comparative CT (ΔΔCT) setting. Data was normalized to the endogenous control actin with expression on sucrose as the reference sample.

Neurospora crassa [2] = experiment: Secreted protein concentration in shake flask culture supernatant; format: cell-based; details: for secreted protein concentration: 48 hours
Description: (§1) Strains were inoculated at an OD595 equal to 0.05 in 100 ml Vogel's salts with 1% (wt/vol) sucrose in a 250 ml Erlenmeyer flask and grown under constant light at 200 rpm for 24 hours. Cultures were then induced with 2% sucrose, 2% cellobiose, 1% sucrose/1% cellobiose, or 1% sucrose/1% Avicel®. Cultures continued to grow under constant light at 200 rpm for 5 days with supernatant collected at 1, 2, 3, 4 and 5 day. The collected supernatant was filtered through a 0.2 μm PES filter to remove biomass before being stored at −20° C. until all samples were collected. To visualize the secreted proteins, 15 μl of unconcentrated supernatant was run on a Criterion 10% Tris-HCL polyacrylamide gel and stained with Thermo Scientific GelCode Blue Stain Reagent.

[3] = tested on: Exoglucanase (Cellobiohydrolase I); experiment: MuLac (4-Methylumbelliferyl β-D-cellobioside) exoglucanase activity of culture supernatant; format: cell-based, Neurospora crassa
Description: as §1
Exoglucanase (Cellobiohydrolase I) activity was measured using a 4-Methylumbelliferyl β-D-cellobioside (MuLac) assay. This assay mainly measures the activity of CBH-1 and activity is expressed as the change in fluorescence over time resulting in the slope of a best-fit line as an indication of enzyme activity. Prior to performing this assay, any excess sugars in the culture supernatant were removed by passing the supernatant over a 5,000 Dalton concentrator (sartorius stedim Vivaspin 500). Retained proteins were washed twice with 50 mM sodium acetate pH 5 and diluted to 2 μg/μl to assure that the assay remained in the linear range. […] The assay was performed in a Beckman Coulter Paradigm plate reader set at 40° C. with excitation/emission wavelengths of 360/465 nm with readings every 30 seconds for 10 minutes. The slope of the best-fit line represents the MuLac activity for an individual culture supernatant. The MuLac activity is normalized to the initial dilution required to obtain a 2 μg/μl concentration in order to represent the undiluted activity. The activity of recombinant cellobiohydrolase-1 was used as a standard and data is presented as a percentage of the wild type activity on Avicel® after 4 days.

Neurospora crassa [4] = experiment: Avicel hydrolysis assay with shake flask culture supernatants; format: cell-based
Description: Cultures were grown in 1% sucrose for 24 hours followed by the addition of 2% sucrose or 0.2% cellobiose. Supernatant was harvested after 24 (WT, Δ3βG and Δ3βGΔcre) or 72 hours (Δ3βG). The WT Avicel® culture was grown for 5 days on 2% Avicel®, Δ3βG was grown in 1% sucrose for 24 hours followed by 48 hours in 1% Avicel® and Δ3βGΔcre was grown in 1% sucrose for 24 hours followed by 24 hours in 1% Avicel®.
Total Avicelase activity was conducted in 250 mL media bottles incubated at 50° C. on a orbital shaker at 200 rpm. Each bottle contained 1% cellulose (Avicel®) and 50 mM (pH 5.0) sodium acetate in a working volume of 50 mL. Tetracycline (10 μg/mL) was added to prevent microbial contamination. Bioreactor culture broth samples were buffer exchanged using a 10 kDa MWCO centrifugal filter to remove any soluble sugars prior to initiating hydrolysis experiments. After pre-incubating the hydrolysis mixture to 50° C., enzyme was added (1 mL filtered culture broth). Samples were taken every 4 hours for the first 12 hours and then every 12 hours thereafter for a total of 48 hours. Hydrolysis experiments were performed in triplicate.
Sucrose, fructose, glucose and cellobiose were measured on a DIONEX ICS-3000 HPLC (Dionex Corp., Sunnyvale, Calif.) using a CarboPac PA20 Analytical Column (3×150 mm) and a CarboPac PA20 guard column (3×30 mm) at 30° C. Following injection of 25 μl of diluted samples, elution was performed with 100 mM KOH (isocratic) at 0.4 ml/min. Sugars were detected using PAD, Four-Potential Carbohydrate Waveform and Peaks were analyzed using the Chromeleon software package.

SMILES: OC[C@H]1O[C@@H](O[C@H]2[C@H](O)[C@@H](O)C(O)O[C@@H]2CO)[C@H](O)[C@@H](O)[C@H]1O (some centres unmarked) [lactose]
- induction of cellulase gene expression ([1]; WT): did not significantly induce
- induction of cellulase gene expression ([1]; Δ3βG mutant): did not significantly induce

SMILES: OC[C@H]1O[C@@H](O[C@H]2C(O)O[C@H](CO)[C@@H](O)[C@@H]2O)[C@H](O)[C@@H](O)[C@@H]1O (some centres unmarked) [sophorose]
- induction of cellulase gene expression ([1]; WT): did not significantly induce
- induction of cellulase gene expression ([1]; Δ3βG mutant): did not significantly induce

- induction of lignocellulolytic genes [1]: not induced
SMILES: OC[C@H]1O[C@@H](O[C@H]2[C@H](O)[C@@H](O)[C@H](O[C@H]3[C@H](O)[C@@H](O)C(O)O[C@@H]3CO)O[C@@H]2CO)[C@H](O)[C@@H](O)[C@@H]1O (some centres unmarked) [cellotriose]

SMILES: O=C[C@H](O)[C@@H](O)[C@@H](O)[C@H](O)CO [D-(+)-galactose]
- induction of cellulase gene expression ([1]; WT): did not significantly induce
- induction of cellulase gene expression ([1]; Δ3βG mutant): did not significantly induce

SMILES: OC[C@H]1O[C@@](CO)(O[C@H]2O[C@H](CO)[C@@H](O)[C@H](O)[C@H]2O)[C@@H](O)[C@@H]1O [sucrose]
- induction of lignocellulolytic genes [1]: not induced
- secreted protein concentration (Neurospora crassa [2]; WT): 270 µg/mL
- secreted protein (Neurospora crassa [2]; triple β-glucosidase deletion, after 2 days): 180 µg/mL
- secreted protein concentration (Neurospora crassa [2]; Δcre-1): 481 µg/mL
- MuLac activity ([3]; triple β-glucosidase deletion, two days): no activity towards MuLac
- activity of secreted proteins towards MuLac ([3]; Δcre-1, on sucrose): do not exhibit any activity towards MuLac
- hydrolysis of crystalline cellulose by culture supernatant (Neurospora crassa [4]; WT cultures grown on or induced with the substance): unable to produce glucose or cellobiose from crystalline cellulose
- hydrolysis of crystalline cellulose by culture supernatant (Neurospora crassa [4]; Δ3βG cultures grown on or induced with the substance): unable to produce glucose or cellobiose from crystalline cellulose
- hydrolysis of crystalline cellulose by culture supernatant (Neurospora crassa [4]; Δ3βGΔcre cultures grown on or induced with the substance): unable to produce glucose or cellobiose from crystalline cellulose

- induction of lignocellulolytic genes [1]: not induced
SMILES: OC[C@H]1O[C@@H](O[C@H]2[C@H](O)[C@@H](O)[C@H](O[C@H]3[C@H](O)[C@@H](O)[C@H](O[C@H]4[C@H](O)[C@@H](O)C(O)O[C@@H]4CO)O[C@@H]3CO)O[C@@H]2CO)[C@H](O)[C@@H](O)[C@@H]1O (some centres unmarked) [cellotetraose]
